In patent US20040186166A1, “Cannabinoid analogs as peroxisome proliferator activated nuclear receptor gamma activators” (priority 2002, published 2004):

Legend:
human IL-8 promoter [1] = assay: IL-8 promoter luciferase assay, HeLa cells with wild type PPARγ; format: cell-based; settings: GW347845 control
Procedure: (§1) For PPARγ activation assay, HEK293 cells were plated in 12-well cell culture plates and maintained in Dulbecco's modified Eagle's medium (DMEM) supplemented with 10% fetal bovine serum (FBS) at 37° C. under 5% CO2. Cells were changed to phenol red-free DMEM supplemented with 10% charcoal-stripped fetal bovine serum 3 hours before transfection by a standard calcium-phosphate precipitation method. Twelve hours after transfection, the cells were washed with phosphate-buffered saline (PBS) and fed again with fresh medium containing the indicated concentrations of compounds. After 36 hours, cells were harvested for β-galactosidase and luciferase activities as described previously (Li et al., Proc Natl Acad Sci USA 94:8479-84, 1997). The average normalized luciferase activity was determined via triplicate experiments. For IL-8 promoter assay, HeLa cells were maintained and transfected in the same way as described above. After transfection, cells were recovered for 4 hours before treatment with AJA, GW347845, or solvent. After 3-4 hours, cells were treated with or without 25 nM of phorbol myristate acetate (PMA) for 24 hours.
The IL-8 luciferase reporter controlled by the human IL-8 promoter (-97/-69) was cotransfected with mPPARγ or mPPARγ ΔAF2 mutant into HeLa cells. After transfection, cells were treated with AJA, GW347845 or solvent after PMA treatment for 24 hours. This was performed by determining the effect of AJA on IL-8 promoter activity and the role of PPARγ in this process. IL-8 is a biomarker for inflammation, and reduction of IL-8 levels correlates with a decrease in inflammation. The involvement of PPARγ in regulating IL-8 promoter activity was determined by comparing the IL-8 promoter activity in the presence of wild type PPARγ or its ΔAF2 mutant. In the experiment illustrated in FIG. 6A, PMA stimulated IL-8 promoter activity 3 fold, which was set as 100% promoter activity.

human IL-8 promoter [2] = assay: IL-8 promoter luciferase assay, HeLa cells with PPARγ ΔAF2 mutant; format: cell-based; settings: cells transfected with PPARγ ΔAF2 mutant
Procedure: as §1, with “After 3-4 hours, cells were treated with or without 25 nM of phorbol myristate acetate (PMA) for 24 hours.” left out
The IL-8 luciferase reporter controlled by the human IL-8 promoter (-97/-69) was cotransfected with mPPARγ or mPPARγ ΔAF2 mutant into HeLa cells. […] The involvement of PPARγ in regulating IL-8 promoter activity was determined by comparing the IL-8 promoter activity in the presence of wild type PPARγ or its ΔAF2 mutant. […]

3T3 L1 fibroblasts = assay: Adipocyte differentiation assay, Oil Red O staining; format: cell-based; settings: 1 μM GW347845, 7 days, 10 μg/ml insulin
Procedure: The adipocyte differentiation assay was performed as described by Mukherjee et. al. (Mol Endocrinol 14: 1425-33, 2000). The 3T3 L1 cells (American Type Culture Collection) were cultured in DMEM media supplemented with 10% calf serum. Two days after reaching confluence, cells were treated with AJA, GW347845, or vehicle (0.1% DMSO) in the presence of 10 μg/ml insulin every other day. After 10 days of treatment with AJA or 7 days with GW347845 at confluence, cells were fixed and stained with Oil Red O (Sigma). For RT-PCR, total cellular RNAs were isolated by TRIzol (Gibco). Reverse transcriptase polymerase chain reaction (RT-PCR) was performed using the superscript first-strand synthesis kit (Invitrogen). After first-strand cDNA was synthesized by use of oligo (dT), cDNA was amplified by PCR. […]
3T3 L1 fibroblasts cells were cultured in DMEM supplemented with 10% calf serum. […] The cells were treated for 10 days with AJA, or 7 days with GW347845, and lipid accumulation in cells was assessed by Oil Red O staining.

[3] = tested on: PPARγ2 and aP2 gene expression in 3T3 L1 cells; assay: RT-PCR of adipocyte-specific genes; format: cell-based; settings: versus vehicle control
Procedure: The adipocyte differentiation assay was performed as described by Mukherjee et. al. (Mol Endocrinol 14: 1425-33, 2000). The 3T3 L1 cells (American Type Culture Collection) were cultured in DMEM media supplemented with 10% calf serum. Two days after reaching confluence, cells were treated with AJA, GW347845, or vehicle (0.1% DMSO) in the presence of 10 μg/ml insulin every other day. After 10 days of treatment with AJA or 7 days with GW347845 at confluence, cells were fixed and stained with Oil Red O (Sigma). For RT-PCR, total cellular RNAs were isolated by TRIzol (Gibco). Reverse transcriptase polymerase chain reaction (RT-PCR) was performed using the superscript first-strand synthesis kit (Invitrogen). After first-strand cDNA was synthesized by use of oligo (dT), cDNA was amplified by PCR. The forward primers and reverse primers used in the amplifications were 5′-GCTGTTATGGGTGAAACTCTGGGAG-3′(SEQ ID NO: 1), and 5′-CTTCATGAGGCCTGTTGTAGAGC-3′ (SEQ ID NO:2), for PPARγ2, 5′-GAGCAAATGGAGTTCCCAGATG-3′ (SEQ ID NO: 3), and 5′-GCAAACAATGGGAATAGTTCACAGTAG-3′ (SEQ ID NO: 4), for aP2, and 5′-GACCACAGTCCATGCCATCAC-3′(SEQ ID NO: 5), and 5′-CATACCAGGAAATGAGCTGAC-3′ (SEQ ID NO: 6), for GAPDH. PCR amplifications were performed in 50 μL volume with Taq DNA polymerase for 30 cycles.
To confirm that AJA and GW347845 induce 3T3 L1 cell differentiation into adipocytes, the expression levels of the adipocyte-specific genes PPARγ2 and aP2 were measured by RT-PCR. Total RNA was isolated after AJA or GW347845 treatment, and compared with vehicle control. Reverse transcription was conducted and the relative amounts of PPARγ2 and aP2 transcripts were measured by PCR reactions using primer sets specific to each gene. PCR products were analyzed on 1% agarose gel and stained with Ethidium Bromide. […] As a control for the induction specificity and the PCR amplification reaction, the expression levels of GADPH were measured in all samples, and found not affected by any treatment.

PPARγ = target: T1, PPARγ (Homo sapiens, UniProt P37231); assay: Activation of PPARγ by natural cannabinoids (no method given)
T1 sequence (P37231 1-505): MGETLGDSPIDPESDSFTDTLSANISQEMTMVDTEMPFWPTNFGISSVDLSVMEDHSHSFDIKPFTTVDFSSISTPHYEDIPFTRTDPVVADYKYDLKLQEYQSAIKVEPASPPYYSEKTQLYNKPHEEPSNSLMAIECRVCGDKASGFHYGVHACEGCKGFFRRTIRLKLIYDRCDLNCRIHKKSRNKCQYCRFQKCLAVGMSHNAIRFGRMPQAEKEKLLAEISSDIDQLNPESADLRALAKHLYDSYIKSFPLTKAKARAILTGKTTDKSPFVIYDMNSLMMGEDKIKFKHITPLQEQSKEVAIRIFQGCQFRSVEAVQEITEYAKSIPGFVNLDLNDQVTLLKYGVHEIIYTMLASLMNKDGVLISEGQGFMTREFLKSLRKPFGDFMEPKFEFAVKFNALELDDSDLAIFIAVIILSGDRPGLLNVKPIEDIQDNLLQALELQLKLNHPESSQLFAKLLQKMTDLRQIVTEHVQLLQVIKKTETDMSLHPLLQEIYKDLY

Structure (SMILES)	reduction of IL-8 promoter activity (human IL-8 promoter [1])	effect on IL-8 promoter activity (human IL-8 promoter [2])	lipid accumulation, Oil Red O staining (3T3 L1 fibroblasts)	PPARγ2 gene expression [3]	aP2 gene expression [3]	activation of PPARγ (PPARγ)
COC(=O)c1ccccc1N[C@@H](Cc1ccc(OCCc2nc(-c3ccccc3)oc2C)cc1)C(=O)O [GW347845, reference compound]	dramatically reduced IL-8 promoter activity	not with the ΔAF2 mutant	dramatic increase in lipid droplet staining	enhanced PPARγ2 and aP2 gene expression significantly	enhanced PPARγ2 and aP2 gene expression significantly	
CCCCCc1cc(O)c2c(c1)OC(C)(C)[C@@H]1CCC(C)=C[C@@H]21 [THC, Tetrahydrocannabinol]						also activate PPARγ
